What was measured:
Abutilon theophrasti [1] = assay: Post-emergence herbicidal action; format: in vivo; conditions: Abutilon theophrasti, 504 h, about 3 weeks after treatment, read-out: Abutilon theophrasti, herbicidal activity rated visually
Procedure: (§1) Seeds of monocotyledonous and dicotyledonous weeds and crop plants were placed in sandy loam in plastic or wood-fiber pots, covered with soil and cultivated in a greenhouse under controlled growth conditions. 2 to 3 weeks after sowing, the test plants were treated at the one-leaf stage. The compounds of the invention, formulated in the form of wettable powders (WP) or as emulsion concentrates (EC), were then sprayed onto the green parts of the plants as aqueous suspension or emulsion with addition of 0.5% additive at a water application rate of 600 l/ha (converted). After the test plants had been kept in the greenhouse under optimum growth conditions for about 3 weeks, the activity of the preparations was rated visually in comparison to untreated controls. For example, 100% activity=the plants have died, 0% activity=like control plants. Tables A1 to A12 below show the effects of selected compounds of the general formula (I) according to Tables I.1 to I.44 on various harmful plants and an application rate corresponding to 1280 g/ha or 320 g/ha, which were obtained by the experimental procedure mentioned above.

Amaranthus retroflexus [2] = assay: Post-emergence herbicidal action; format: in vivo; conditions: about 3 weeks after treatment
Procedure: as §1

Matricaria inodora [3] = assay: Post-emergence herbicidal action; format: in vivo; conditions: about 3 weeks after treatment
Procedure: as §1

Pharbitis purpurea [4] = assay: Post-emergence herbicidal action; format: in vivo; conditions: about 3 weeks after treatment
Procedure: as §1

Setaria viridis [5] = assay: Post-emergence herbicidal action; format: in vivo; conditions: Setaria viridis, 504 h, about 3 weeks after treatment, read-out: Setaria viridis, herbicidal activity rated visually
Procedure: as §1

Stellaria media [6] = assay: Post-emergence herbicidal action; format: in vivo; conditions: Stellaria media, 504 h, about 3 weeks after treatment, read-out: Stellaria media, herbicidal activity rated visually
Procedure: as §1

Viola tricolor [7] = assay: Post-emergence herbicidal action; format: in vivo; conditions: 504 h, about 3 weeks after treatment, read-out: Viola tricolor, herbicidal activity rated visually
Procedure: as §1

Alopecurus myosuroides [8] = assay: Pre-emergence herbicidal action; format: in vivo; conditions: after about 3 weeks
From the text: (§2) Seeds of monocotyledonous and dicotyledonous weed plants and crop plants were placed in plastic or organic planting pots and covered with soil. The compounds of the invention, formulated in the form of wettable powders (WP) or as emulsion concentrates (EC), were then applied onto the surface of the covering soil as aqueous suspension or emulsion with addition of 0.5% additive at a water application rate of 600 l/ha (converted). After the treatment, the pots were placed in a greenhouse and kept under good growth conditions for the test plants. After about 3 weeks, the effect of the preparations was scored visually in comparison with untreated controls as percentages. For example, 100% activity=the plants have died, 0% activity=like control plants. Tables B1 to B15 below show the effects of selected compounds of the general formula (I) according to Tables I.1 to I.44 on various harmful plants and an application rate corresponding to 1280 g/ha or 320 g/ha, which were obtained by the experimental procedure mentioned above.

Hordeum murinum = assay: Pre-emergence herbicidal action; format: in vivo; conditions: 320 g/ha, after about 3 weeks
From the text: as §2

Matricaria inodora [9] = assay: Pre-emergence herbicidal action; format: in vivo; conditions: Tripleurospermum inodorum, 504 h, after about 3 weeks, read-out: Matricaria inodora, herbicidal effect scored visually
From the text: as §2

Polygonum convolvulus [10] = assay: Pre-emergence herbicidal action; format: in vivo; conditions: after about 3 weeks
From the text: as §2

Setaria viridis [11] = assay: Pre-emergence herbicidal action; format: in vivo; conditions: Setaria viridis, 504 h, after about 3 weeks, read-out: Setaria viridis, herbicidal effect scored visually
From the text: as §2

Stellaria media [12] = assay: Pre-emergence herbicidal action; format: in vivo; conditions: Stellaria media, 504 h, after about 3 weeks, read-out: Stellaria media, herbicidal effect scored visually
From the text: as §2

Viola tricolor [13] = assay: Pre-emergence herbicidal action; format: in vivo; conditions: Viola tricolor, 504 h, after about 3 weeks, read-out: Viola tricolor, herbicidal effect scored visually
From the text: as §2

photosystem II (PS II) = target: T1, photosystem II (PS II) (Spinacia oleracea, UniProt P69560); assay: Measurement of the PS II activity in thylakoid membranes (DCPIP reduction); format: biochemical; conditions: 100 μM test compound, spinach thylakoid membranes, DCPIP 120 μM, 10 min at 22° C. with exposure to light; read-out: Effect (inhibition of PS II activity)
T1 construct: the chloroplasts were osmotically ruptured and the thylakoid membranes were then obtained by centrifugation; from tissue; host or cells: fresh spinach leaves; thylakoid membranes isolated from chloroplasts
Procedure: Cooled fresh spinach leaves were comminuted and homogenized in 50 mM phosphate buffer, pH 6.8. 10 mM KCl, 0.34 M sucrose (sucrose buffer) (blender, 1 g of plant material/ml). The homogenate was subsequently filtered through 4 layers of Miracloth and the chloroplasts were isolated by centrifugation, i.e. 10 min of centrifugation at 4400×g (4° C.). The sediment was suspended in 25 ml of sucrose buffer and re-centrifuged for 10 min at 4400×g (4° C.). The sediment was then suspended in 40 ml of 50 mM phosphate buffer, pH 6.8, 10 mM KCl, without sucrose. In this step, the chloroplasts were osmotically ruptured and the thylakoid membranes were then obtained by centrifugation (10 min, 4400×g, 4° C.). The membrane sediment was finally suspended in 20 ml of 50 mM phosphate buffer, pH 6.8, 10 mM KCl. Following protein determination and activity determination, the membrane suspension was divided into aliquots and frozen in liquid nitrogen. The aliquots were stored at −80° C. Under these conditions, the photosystem II preparation was storage stable for at least three months. The activity determination of photosystem II (PS II) was then carried out using the following test principle:
The electron transfer from PS II to an artificial electron acceptor, 2,6-dichlorophenolindophenol (DCPIP), was measured with exposure to light. The concentration of the blue oxidized form of DCPIP was determined spectrophotometrically at wavelength λ=595 nm. […] The activity determination was carried out in microtiter plates (96 cavities) in a reaction volume of 200 μl. Here, 155 μl of dilute membrane suspension were initially charged in 50 mM of phosphate buffer, pH 6.8, 10 mM KCl. Depending on the activity of the PS II preparation, the dilution was adjusted such that the measurement of the decrease in absorption (λ=595 nm) was linear for at least 10 min. In each case 5 μl solution of the test compounds of a concentration of 100 μM in DMSO were added to the enzyme suspension; controls contained 5 μl DMSO; the final concentration of DMSO in the reaction batch was thus 2.5% (v/v); this concentration had no adverse effect on the enzymatic activity. On each microtiter plate, a known PS II inhibitor, for example metribuzin, was used as standard, which allowed the quality of the PS II test to be assessed. The reaction was started by addition of 40 μl DCPIP solution (600 μM in distilled water); the final concentration of DCPIP was 120 μM. Measurement of absorption was carried out over a period of 10 min at 22° C. and with exposure to light. Using metribuzin as comparative substance, the results for the efficacy of the compounds of the general formula (I) at 100 μM are stated in the table below using the following classification: ++++ (inhibition≥90%), +++ ([…]≥70%), ++ (70%>inhibition≥50%), + (50%>inhibition≥30%).

Alopecurus myosuroides [14] = assay: Post-emergence herbicidal action; format: in vivo; conditions: 1280 g/ha, about 3 weeks after treatment
Procedure: as §1

Veronica persica [15] = assay: Post-emergence herbicidal action; format: in vivo; conditions: about 3 weeks after treatment
Procedure: as §1

Abutilon theophrasti [16] = assay: Pre-emergence herbicidal action; format: in vivo; conditions: 1280 g/ha, after about 3 weeks
From the text: as §2

Lolium rigidum = assay: Pre-emergence herbicidal action; format: in vivo; conditions: 1280 g/ha, after about 3 weeks
From the text: as §2

Pharbitis purpurea [17] = assay: Pre-emergence herbicidal action; format: in vivo; conditions: 1280 g/ha, after about 3 weeks
From the text: as §2

Polygonum convolvulus [18] = assay: Post-emergence herbicidal action; format: in vivo; conditions: 1280 g/ha, about 3 weeks after treatment
Procedure: as §1

Amaranthus retroflexus [19] = assay: Pre-emergence herbicidal action; format: in vivo; conditions: after about 3 weeks
From the text: as §2

Veronica persica [20] = assay: Pre-emergence herbicidal action; format: in vivo; conditions: 1280 g/ha, after about 3 weeks
From the text: as §2

Echinochloa crus-galli [21] = assay: Post-emergence herbicidal action; format: in vivo; conditions: 1280 g/ha, about 3 weeks after treatment
Procedure: as §1

Echinochloa crus-galli [22] = assay: Pre-emergence herbicidal action; format: in vivo; conditions: 1280 g/ha, after about 3 weeks
From the text: as §2

Poa annua = assay: Pre-emergence herbicidal action; format: in vivo; conditions: 1280 g/ha, after about 3 weeks
From the text: as §2

CC1=C(C)C(O)N(c2nc(C3CC3)ns2)C1=O (stereo not drawn) [I.2-11, 3,4-Dimethyl-5-hydroxy-1-(3-cyclopropyl-1,2,4-thiadiazol-5-yl)-1,5-dihydro-2H-pyrrol-2-one]
pest or weed control at 320 g/ha (Abutilon theophrasti [1]; 320 g/ha): 100%
Amaranthus retroflexus, herbicidal activity rated visually (Amaranthus retroflexus [2]; 320 g/ha): 100%
Matricaria inodora, herbicidal activity rated visually (Matricaria inodora [3]; 320 g/ha): 100%
Pharbitis purpurea, herbicidal activity rated visually (Pharbitis purpurea [4]; 320 g/ha): 100%
pest or weed control at 320 g/ha (Setaria viridis [5]; 320 g/ha): 100%
pest or weed control at 320 g/ha (Stellaria media [6]; 320 g/ha): 100%
pest or weed control at 320 g/ha (Viola tricolor [7]; 320 g/ha): 100%
Alopecurus myosuroides, herbicidal effect scored visually (Alopecurus myosuroides [8]; 320 g/ha): 90%
Hordeum murinum, herbicidal effect scored visually (Hordeum murinum): 100%
pest or weed control at 320 g/ha (Matricaria inodora [9]): 100%
Polygonum convolvulus, herbicidal effect scored visually (Polygonum convolvulus [10]; 320 g/ha): 100%
pest or weed control at 320 g/ha (Setaria viridis [11]; 320 g/ha): 100%
pest or weed control at 320 g/ha (Stellaria media [12]; 320 g/ha): 100%
pest or weed control at 320 g/ha (Viola tricolor [13]; 320 g/ha): 100%
inhibition at 100 µM (stock) (photosystem II (PS II)): > 90%

CC1=C(Cl)C(=O)N(c2nc(C3CC3)ns2)C1O (stereo not drawn) [I.3-11, 3-Chloro-4-methyl-5-hydroxy-1-(3-cyclopropyl-1,2,4-thiadiazol-5-yl)-1,5-dihydro-2H-pyrrol-2-one]
pest or weed control at 1280 g/ha (Abutilon theophrasti [1]): 100%
Alopecurus myosuroides, herbicidal activity rated visually (Alopecurus myosuroides [14]): 80%
Amaranthus retroflexus, herbicidal activity rated visually (Amaranthus retroflexus [2]; 1280 g/ha): 100%
Matricaria inodora, herbicidal activity rated visually (Matricaria inodora [3]; 1280 g/ha): 90%
Pharbitis purpurea, herbicidal activity rated visually (Pharbitis purpurea [4]; 1280 g/ha): 100%
pest or weed control at 1280 g/ha (Stellaria media [6]): 100%
Veronica persica, herbicidal activity rated visually (Veronica persica [15]; 1280 g/ha): 80%
pest or weed control at 1280 g/ha (Viola tricolor [7]): 100%
Abutilon theophrasti, herbicidal effect scored visually (Abutilon theophrasti [16]): 80%
Alopecurus myosuroides, herbicidal effect scored visually (Alopecurus myosuroides [8]; 1280 g/ha): 100%
Lolium rigidum, herbicidal effect scored visually (Lolium rigidum): 80%
pest or weed control at 1280 g/ha (Matricaria inodora [9]): 100%
Pharbitis purpurea, herbicidal effect scored visually (Pharbitis purpurea [17]): 100%
Polygonum convolvulus, herbicidal effect scored visually (Polygonum convolvulus [10]; 1280 g/ha): 80%
pest or weed control at 1280 g/ha (Setaria viridis [11]): 90%
pest or weed control at 1280 g/ha (Stellaria media [12]): 100%
pest or weed control at 1280 g/ha (Viola tricolor [13]): 100%
inhibition at 100 µM (stock) (photosystem II (PS II)): > 90%

CN1CC(O)N(c2ncns2)C1=O (stereo not drawn) [I.13-1, 4-Hydroxy-1-methyl-3-[1,2,4-thiadiazol-5-yl]-imidazolidin-2-one]
pest or weed control at 1280 g/ha (Abutilon theophrasti [1]): 100%
Alopecurus myosuroides, herbicidal activity rated visually (Alopecurus myosuroides [14]): 80%
Amaranthus retroflexus, herbicidal activity rated visually (Amaranthus retroflexus [2]; 1280 g/ha): 100%
Pharbitis purpurea, herbicidal activity rated visually (Pharbitis purpurea [4]; 1280 g/ha): 90%
Polygonum convolvulus, herbicidal activity rated visually (Polygonum convolvulus [18]): 100%
pest or weed control at 1280 g/ha (Setaria viridis [5]): 80%
pest or weed control at 1280 g/ha (Stellaria media [6]): 90%
Veronica persica, herbicidal activity rated visually (Veronica persica [15]; 320 g/ha): 80%
pest or weed control at 1280 g/ha (Viola tricolor [7]): 100%
Amaranthus retroflexus, herbicidal effect scored visually (Amaranthus retroflexus [19]; 320 g/ha): 100%
pest or weed control at 320 g/ha (Matricaria inodora [9]): 90%
pest or weed control at 1280 g/ha (Setaria viridis [11]): 80%
pest or weed control at 1280 g/ha (Stellaria media [12]): 100%
Veronica persica, herbicidal effect scored visually (Veronica persica [20]): 90%
pest or weed control at 1280 g/ha (Viola tricolor [13]): 100%
inhibition at 100 µM (stock) (photosystem II (PS II)): 50 to 70%

COC(=O)OC1C(C)=C(C)C(=O)N1c1nc(C2CC2)ns1 (stereo not drawn) [I.17-11, 3,4-Dimethyl-5-methoxycarbonyloxy-1-[3-(cyclopropyl)-1,2,4-thiadiazol-5-yl]-1,5-dihydro-2H-pyrrol-2-one]
pest or weed control at 1280 g/ha (Abutilon theophrasti [1]): 100%
Amaranthus retroflexus, herbicidal activity rated visually (Amaranthus retroflexus [2]; 1280 g/ha): 100%
Echinochloa crus-galli, herbicidal activity rated visually (Echinochloa crus-galli [21]): 100%
Matricaria inodora, herbicidal activity rated visually (Matricaria inodora [3]; 1280 g/ha): 100%
pest or weed control at 1280 g/ha (Setaria viridis [5]): 100%
pest or weed control at 1280 g/ha (Stellaria media [6]): 100%
Abutilon theophrasti, herbicidal effect scored visually (Abutilon theophrasti [16]): 100%
Amaranthus retroflexus, herbicidal effect scored visually (Amaranthus retroflexus [19]; 1280 g/ha): 100%
Echinochloa crus-galli, herbicidal effect scored visually (Echinochloa crus-galli [22]): 100%
Lolium rigidum, herbicidal effect scored visually (Lolium rigidum): 90%
pest or weed control at 1280 g/ha (Matricaria inodora [9]): 100%
Poa annua, herbicidal effect scored visually (Poa annua): 100%
pest or weed control at 1280 g/ha (Setaria viridis [11]): 100%
pest or weed control at 1280 g/ha (Stellaria media [12]): 100%

From patent publication US20200095241A1, “SUBSTITUTED 1,2,4-THIADIAZOLYLPYRROLONES AND 1,2,4-THIADIAZOLYLHYDANTOINS AND SALTS THEREOF AND USE THEREOF AS HERBICIDES” (Bayer CropScience Aktiengesellschaft, priority 2016, published 2020)
